# Measurements reported in PubChem BioAssay AID2744 (NMMLSC, 2010).
# Calls of active or inactive are those of the source.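 The calls were made as follows: active = fitted half-maximal concentration for changing reporter fluorescence at or below a set limit; inactive = the rest.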
# Molecular target: Citrate synthase, peroxisomal (Saccharomyces cerevisiae (strain ATCC 204508 / S288c)) (UniProt P08679)
# Experiment: yeast TOR pathway CIT2-GFP reporter potency – flow cytometry, MLPCN hits, dose response (AID 2744)
# Conditions: S. cerevisiae CIT2-GFP strain, 3 h, at 33 µM (top of the series)
# Sequence of Citrate synthase, peroxisomal (Saccharomyces cerevisiae (strain ATCC 204508 / S288c)) (P08679 whole entry, looked up): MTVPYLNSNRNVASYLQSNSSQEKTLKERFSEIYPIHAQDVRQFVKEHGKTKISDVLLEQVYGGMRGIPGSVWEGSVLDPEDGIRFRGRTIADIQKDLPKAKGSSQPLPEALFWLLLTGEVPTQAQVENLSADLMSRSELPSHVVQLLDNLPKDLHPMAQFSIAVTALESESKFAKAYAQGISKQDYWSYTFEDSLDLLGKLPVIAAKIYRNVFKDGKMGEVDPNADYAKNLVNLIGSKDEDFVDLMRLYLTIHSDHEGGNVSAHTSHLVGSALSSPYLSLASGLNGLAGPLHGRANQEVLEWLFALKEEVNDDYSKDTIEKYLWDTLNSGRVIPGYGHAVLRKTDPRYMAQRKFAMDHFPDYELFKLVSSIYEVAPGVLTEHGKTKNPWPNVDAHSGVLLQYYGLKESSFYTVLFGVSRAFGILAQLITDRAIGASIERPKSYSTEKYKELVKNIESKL
row,Structure (SMILES),"GFP fluorescence, higher = induction"
1,O=C(O)/C=C/C(=O)c1ccc2c(c1)CCc1ccccc1-2,inactive
2,C[C@H]1C[C@@H](C)C(=O)[C@@H]([C@H](O)CC2CC(=O)NC(=O)C2)C1,inactive
3,CC(C)CC(=O)NC(=S)Nc1nc(-c2ccccc2)cs1,inactive
4,CC1=C/C(=N\OS(=O)(=O)c2ccccc2)C(C(C)C)=CC1=O,inactive
5,COc1cccc(C(=O)Nc2nnc(-c3ccc(Cl)cc3)o2)c1,inactive
6,COc1ccc(C2(C)ON(c3ccccc3C(F)(F)F)C2=O)cc1 (stereo unspecified),inactive
7,COC(CNC(=O)c1ccc2c3c(onc13)-c1ccccc1C2=O)OC,inactive
8,CC(c1ccccc1)N1C(=O)/C(=C/c2ccncc2)SC1=S (stereo unspecified),inactive
9,CC(Oc1cccc(Cl)c1)C(=O)Nc1nc(-c2ccccn2)cs1 (stereo unspecified),inactive
10,COc1ccc(C(=O)NC(=S)NNC(=O)c2cnccn2)cc1,inactive
11,O=C1C=CC(=O)N1c1ccc(Sc2ccc([N+](=O)[O-])cc2)cc1,inactive
12,Cc1c(Br)c(=O)oc2c(Br)c(O)c(O)cc12,inactive
13,COc1ccc(N2C(=O)CC(Sc3ncn[nH]3)C2=O)c(OC)c1 (stereo unspecified),inactive
14,Oc1ccc2ccccc2c1N=Nc1nccs1,inactive
15,CS(=O)(=O)c1sc(C#N)c2c1C(=O)CC(c1ccccc1)C2 (stereo unspecified),inactive
16,COc1ccc(NC2=C(Cl)C(=O)N(CCc3ccccc3)C2=O)cc1,inactive
17,COc1cccc2sc(Nc3nc(-c4ccccn4)cs3)nc12,inactive
18,Cc1cccc(Nc2nc(-c3ccccn3)cs2)n1,inactive
19,CCN1/C(=C/C=C/c2sc3ccccc3[n+]2CC)Sc2ccccc21,inactive
20,CC1=C/C(=N\OS(=O)(=O)c2ccccc2)C(C)=CC1=O,inactive
21,COc1ccc(C(=O)/C=C2/C(=O)Nc3ccccc32)c(OC)c1,inactive
22,CC(=O)Oc1oc(-c2ccccc2)nc1C=Nc1ccc(N(C)C)cc1,inactive
23,Oc1c(CN2CCN(c3ccc(F)cc3)CC2)cc(Cl)c2cccnc12,inactive
24,C=CCN1C(=O)/C(=C/c2cccs2)C(=O)NC1=S,inactive

row,Structure (SMILES),"GFP fluorescence, higher = induction"
1,CCOC(=O)CSC1=NC(=O)/C(=C/c2ccc(Br)cc2)S1,inactive
2,Cc1cccc(N=C2NC(=O)/C(=C/C=C/c3ccco3)S2)c1C,inactive
3,Cc1ccsc1/C=N/Nc1ncc(Cl)cc1Cl,inactive
4,COc1cc(N2C(=O)C=CC2=O)c(OC)cc1Cl,inactive
5,CC(=O)OC[C@]12CC[C@H]3[C@@](C)(CC[C@H]4C(C)(C)CCC[C@]34C)[C@@H]1C[C@H](C1=CC(=O)O[C@@H]1OC(C)=O)O2,inactive
6,O=C(Nc1nc(-c2ccccn2)cs1)c1cc2ccccc2o1,inactive
7,COc1ccc(C(=O)NC(=S)NNC(=O)c2cnccn2)cc1OC,inactive
8,Cc1ccccc1OCC(=O)NNC(=S)NC(=O)c1ccco1,inactive
9,C=C1C(O)[C@@H]2O[C@]3(CC[C@H](/C=C/C(C)[C@@H]4CC(C)=CC5(O[C@H](C[C@@](C)(O)C(=O)O)CCC5O)O4)O3)CC[C@H]2O[C@@H]1C(O)CC(C)[C@H]1OC2(CCCCO2)CCC1C (stereo partly specified),inactive
10,CC1(c2ccccc2)ON(c2ccccc2C(F)(F)F)C1=O (stereo unspecified),inactive
11,CS(=O)(=O)N1N=C(c2ccccc2)CC1c1ccc2c(c1)OCO2 (stereo unspecified),inactive
12,CCOC(=O)C1=C(O)c2ccccc2C(=O)/C1=C\c1ccc(C)cc1,inactive
13,Cc1ccc2c(c1)c(/C=C/c1cc[n+](C)cc1)c(C)n2C,inactive
14,C#CCOc1c(Br)cc(/C=C2/C(=O)ON=C2C)cc1OC,inactive
15,Cc1cc(Br)c2c(c1)/C(=C/C(=O)c1cccs1)C(=O)N2,inactive
16,CC[C@@]1(c2ccccc2OC)ON(c2ccccc2C(F)(F)F)C1=O,inactive
17,O=C1c2cccc3c([N+](=O)[O-])ccc(c23)C(=O)N1CCc1ccccn1,inactive
18,CC(C)(C)C(=O)NC(=S)NNC(=O)c1sc2ccccc2c1Cl,inactive
19,Cc1ccc(S(=O)(=O)Cc2cc(F)c([N+](=O)[O-])cc2[N+](=O)[O-])cc1,inactive
20,Oc1c(C(Nc2cccc(C(F)(F)F)c2)c2ccncc2)ccc2cccnc12 (stereo unspecified),inactive
21,O=C1N(c2ccccc2C(F)(F)F)O[C@@]1(c1ccccc1)C1CCCC1,inactive
22,Cc1cccnc1Nc1nc(-c2ccccn2)cs1,inactive
23,O=C(/C=C/Sc1ncn[nH]1)c1ccc(Cl)cc1,inactive
24,CC1=C(C)/C(=N\OS(=O)(=O)c2ccccc2)C=CC1=O,inactive

row,Structure (SMILES),"GFP fluorescence, higher = induction"
1,c1ccc(-c2csc(Nc3cccnc3)n2)nc1,inactive
2,Oc1c(CN2CCCCC2)cc(Br)c2cccnc12,inactive
3,O=C1C=CC(=O)N1N(c1ccccc1)c1ccccc1,inactive
4,C=CCOc1cccc(C(=O)/C=C2/C(=O)Nc3ccccc32)c1,inactive
5,Cc1c(NC2=C(Cl)C(=O)N(c3ccccc3)C2=O)c(=O)n(-c2ccccc2)n1C,inactive
6,CN1CCN(C(=O)c2cc(COc3c(F)cccc3F)on2)CC1c1ccccc1 (stereo unspecified),inactive
7,CC(=O)N(\C=C/C=C/C=C1\Sc2ccccc2C1=O)c1ccccc1,inactive
8,CC(C)(C)c1nnc(N/N=C/c2cc(Br)ccc2O)n(N)c1=O,inactive
9,O=C(/C=C/c1ccnc2ccccc12)c1cccs1,inactive
10,CCCOc1ccc(C(=O)NNC(=S)NC(=O)c2ccccc2)cc1,inactive
11,CCOc1ccc(N/N=C(/C#N)C(N)=O)cc1,inactive
12,CC1=C(C)/C(=N\OS(=O)(=O)c2ccc(C)cc2)C=CC1=O,inactive
13,CC1=NNC(=O)/C1=C\c1cn(-c2ccccc2)nc1-c1cccs1,inactive
14,O=C(Nc1nnc(-c2ccc(Cl)cc2)o1)c1ccccc1Br,inactive
15,O=C1C=C(c2ccc(Cl)cc2)C(=O)N1Nc1ccccc1,inactive
16,O=C(COc1c(Br)cc(Br)c2cccnc12)N1CCc2ccccc2C1,inactive
17,O=[N+]([O-])c1ccc(N=Nc2c(Cl)cc(O)cc2Cl)cc1,inactive
18,O=C(/C=C/c1cccc(Cl)c1)c1nc2ccccc2[nH]1,inactive
19,Oc1ccc(Br)cc1/C=N/Nc1ccccn1,inactive
20,Oc1c(I)cc(I)c2cccnc12,inactive
21,COc1ccc2c(c1)c1nnc(SC)nc1n2C,inactive
22,O=C(O)C1Sc2[nH]c(=O)sc2C2c3cc(Br)ccc3OC(=O)C12 (stereo unspecified),inactive
23,O=c1c2cc(Cl)ccc2nc(-c2ccc([N+](=O)[O-])cc2)n1O,inactive
24,Cc1ccc(C(=O)Sc2cccccc2=O)cc1,inactive

row,Structure (SMILES),"GFP fluorescence, higher = induction"
1,Cc1cc(C)c2c(c1)/C(=C/C(=O)c1ccc(Br)s1)C(=O)N2,inactive
2,CCc1nc2ccccc2c(=O)n1NC(=O)c1c(O)c2ccccc2n(CC)c1=O,inactive
3,O=C1CCN(S(=O)(=O)c2ccccc2)CCN1CCOCc1ccc(F)cc1,inactive
4,Cc1cccc(N=Nc2ccc(O)c3ncccc23)c1,inactive
5,Cc1cc(O)c(C(=O)/C=C/c2c(F)c(F)c(F)c(F)c2F)c(=O)o1,inactive
6,CCOC(=O)Cn1cc(/C=C/[N+](=O)[O-])c2ccccc21,inactive
7,CCOC(=O)CS(=O)(=O)c1nc(-c2ccc(F)cc2)cc(C(F)(F)F)n1,inactive
8,COc1cccc(N=Nc2ccc(O)c3ncccc23)c1,inactive
9,Cc1c(N2C(=O)/C(=C\c3ccccc3O)SC2=S)c(=O)n(-c2ccccc2)n1C,inactive
10,CCCc1cc(N2CCN(c3ccccn3)CC2)n2nc(C)c(-c3ccccc3)c2n1,inactive
11,N#Cc1ccc(N=c2ssnc2Cl)cc1,inactive
12,CCOc1ccc(N2C(=O)C(Cl)=C(Nc3ccccc3O)C2=O)cc1,inactive
13,CCOc1ccc(N2C(=O)/C(=C\c3cccs3)C(=O)NC2=S)cc1,inactive
14,Cc1ccc(-c2nn(C(C)(C)C)c3ncnc(N)c23)cc1,inactive
15,Cc1ccc(/C=C2\C(=O)NC(=S)N(c3ccccc3F)C2=O)s1,inactive
16,O=C(NC(=S)NNC(=O)c1cnccn1)c1ccc(Cl)cc1,inactive
17,Clc1cccc(CN2COc3c(cc(Cl)c4cccnc34)C2)c1,inactive
18,CSc1nnc2c3cc(F)ccc3n(C)c2n1,inactive
19,CC(=O)Oc1ccc(/C=c2\sc3ncnn3c2=O)cc1,inactive
20,CN1C(=O)/C(=N\OC(=O)c2cccc3ccccc23)c2ccccc21,inactive
21,O=C(Nc1nc(-c2ccccn2)cs1)C1COc2ccccc2O1 (stereo unspecified),inactive

# Same assay, conditions: S. cerevisiae CIT2-GFP strain, flow cytometry fluorescence, 3 h
row,Structure (SMILES),EC50
1,N/C(=N\OC(=O)c1ccccc1Cl)c1ccc(Cl)cc1,6.14 µM
2,CC1(C)C[C@H]2C=C(C=O)[C@]3(C=O)C[C@]3(C)[C@H]2C1,1.41 µM
3,N/C(=N\OC(=O)c1ccc(Cl)cc1Cl)c1ccccc1,4.16 µM
